Test results as given in patent publication US9492470B2, “Use of HMGA-targeted phosphorothioate DNA aptamers to suppress carcinogenic activity and increase sensitivity to chemotherapy agents in human cancer cells” (MIAMI UNIVERSITY, priority 2012, dated 2016).
Where two headings read alike, the source gives them in different places. In the oligonucleotide strings, read from the 5' end, every base follows the letter of its sugar. An asterisk marks phosphorothioate; unmarked linkages are phosphodiester. Other units and linkages are bracketed, terminal groups are in braces. A string of capitals states the bases alone. d = 2'-deoxy (DNA)

What was measured:
AsPC-1 cells [1] = conditions: for cell death: 96 h, compared to non-transfected cells; for cells dead compared to UT: versus untransfected (UT) cells; for Fold change in numbers of viable cells between TC and sDNA transfected cells (in parentheses) / Fold change in numbers of viable cells between UT and transfected cells: 96 h after transfection
Experimental: AsPC-1 cells were grown in Roswell Park Memorial Institute medium supplemented with 10% FBS, and 1% penicillin-streptomycin.
Transfections using sDNA at concentrations of 0.1 and 0.25 μg per well were conducted with 5×10^4 and 1×10^5 Miapaca-2 and AsPC-1 cells, respectively, in 24-well plates and all data were collected in quadruplicate. Miapaca-2 and AsPC-1 cells were transfected with sDNA using Lipofectamine 2000 (Invitrogen,™ Life Technologies Corporation, Carlsbad, Calif.) according to the manufacturer's protocol.
Briefly, AsPC-1 cells grown in 10% FBS containing RPIM medium were trypsinized using a trypsin-EDTA solution commercially available from the Sigma-Aldrich, and used to seed fresh media in a 24-well plate with 10^5 cells per well.
After 48 hours, the cells were transfected with the selected sDNA using Lipofectamine 2000 (Invitrogen,™ Life Technologies Corporation, Carlsbad, Calif.) according to the manufacturer's protocol. […] The cells were then fixed with 4% paraformaldehyde in PBS for 20 minutes and stained in 0.1% crystal violet stain (Sigma-Aldrich) for 30 minutes. The cells were washed under running tap water, air dried, and extracted with 0.2% Triton™ X-100 for 30 minutes. […] The absorbance of the Triton X-100 was measured at 570 nm using a HTS microplate reader. All results were analyzed for statistical significance using a student's unpaired t-test.

Miapaca-2 cells [2] = test: Cell growth with gemcitabine treatment after sDNA transfection, Miapaca-2; assay type: cell-based, Human; conditions: for IC50: Homo sapiens, MIA PaCa-2, 96 h
AsPC-1 cells [3] = test: Cell growth with gemcitabine treatment after sDNA transfection, AsPC-1; assay type: cell-based, Human; conditions: for Fold change in numbers of viable cells normalized relative to TC: AsPC-1, 0.25 ug sDNA; for Fold change in numbers of viable cells normalized relative to TC / Fold change in numbers of viable cells, TC cells with gemcitabine: 96 hours; for Fold change in numbers of viable cells, TC cells with gemcitabine: AsPC-1, TC (no sDNA)
AsPC-1 cells [4] = test: as above; assay type: cell-based, Human; conditions: for Fold change in numbers of viable cells normalized relative to TC: AsPC-1, 0.1 ug sDNA
Experimental: (§1) Cells were fixed after 96 hours and numbers of viable cells counted by measuring the absorbance at 570 nm.
(§2) Cells were transfected with 0.1 μg of TC-sDNA, Mix-sDNA, CG-sDNA, and AT-sDNA.

Miapaca-2 cells [5] = test: Cell viability (crystal violet) after sDNA transfection, Miapaca-2; assay type: cell-based, Human; conditions: for cells dead compared to UT: versus untransfected (UT) cells; for Fold change in numbers of viable cells between TC and sDNA transfected cells (in parentheses) / Fold change in numbers of viable cells between UT and transfected cells: 96 h after transfection
Experimental: The absorbance was measured at 570 nm in quadruplicate. All data from control cells were combined and averaged.

[6] = test system: HMGA1 expression levels in AsPC-1 cells; test: Western blot of HMGA1 expression levels in AsPC-1 nuclear extracts; assay type: cell-based, Human; conditions: 48 hours
Experimental: Cytoplasmic and nuclear protein extracts were prepared from pancreatic cancer cells using NE-PER extraction kit (Thermo Scientific, Rockford, Ill.). Protein concentrations were determined using a bicinchoninic acid assay with bovine serum albumin as a standard. Nuclear proteins that contained 25 or 15 μg total protein were separated by SDS-PAGE with a 4%-20% Criterion gradient gel (Bio-Rad Laboratories, Inc., Hercules, Calif.). The proteins were transferred to immuno-blot PVDF membrane (0.2 μm) (Bio-Rad Laboratories, Inc., Hercules, Calif.) and blocked in 5% dry milk in PBS supplemented with 0.2% Tween 20 (PBST). The PVDF membranes were then probed with 1:1000 dilution of rabbit anti-HMGA1 antibody (Santa Cruz Biotechnology Inc, Santa Cruz, Calif.) and 1:100 dilution of rabbit anti-HMGA2 antibody (Abcam plc, Cambridge, Mass.), in 3% BSA in PBST at 4° C. overnight. After three washes with PBST, the membrane was blotted with secondary antibody, ant-rabbit IgG-HRP (cell signaling) 1:5000 dilution in 1% dry milk in PBST at room temperature for 1 hour. An enhanced chemiluminescence detection (ECL, GE Healthcare Life Sciences, Piscataway, N.J.) system was used to detect target proteins. To ensure equal loading of the proteins between groups, membranes were re-probed with anti-TATA binding protein antibody (Abcam plc, Cambridge, Mass.). […] The control was nuclear extract from untreated cells. Triplicates of each sample were run on the gel and analyzed with the Alpha Imager. The relative HMGA1 densities were obtained by dividing HMGA 1 density by TBP density. […] TATA binding protein (TBP) was used as a loading control. […] HMGA1 expression levels were examined after transfection with CG-sDNA or AT-sDNA to determine if the transfection procedure affected HMGA1 expression levels. The AT-sDNA used for transfection contained an 18 adenine/thymine stretch enabling HMGA1 to bind the DNA with all three AT-hooks. As a negative control, a non-HMGA1-targeted sDNA containing an equal length of DNA but with no AT-stretches, i.e. CG-sDNA, was used. […]

Miapaca-2 cells [7] = test: Cell growth with gemcitabine treatment after sDNA transfection, Miapaca-2; assay type: cell-based, Human; conditions: 96 hours; for Fold change in numbers of viable cells normalized relative to TC: Miapaca-2, 0.1 ug sDNA
Experimental: as §1, §2

CG-sDNA: CG-rich phosphorothioate DNA (SEQ ID NO: 12), negative control with no AT-stretches (DNA dC*dC*dC*dC*dG*dG*dG*dC*dC*dC*dC*dG*dG*dC*dC*dG*dG*dG*dC*dG*dC*dC*dG*dC)
cell death (AsPC-1 cells [1]; AsPC-1, 0.1 μg sDNA per well): 12% | cells dead compared to UT (AsPC-1 cells [1]; AsPC-1, 0.1 ug sDNA, 48 hrs): 33.8% | Fold change in numbers of viable cells between TC and sDNA transfected cells (in parentheses) (AsPC-1 cells [1]; AsPC-1, 0.1 μg sDNA): (−1.11) fold | Fold change in numbers of viable cells between UT and transfected cells (AsPC-1 cells [1]; AsPC-1, 0.1 μg sDNA): −1.20 fold | cells dead compared to TC (AsPC-1 cells [1]; AsPC-1, 0.1 μg sDNA, 96 hrs, versus transfection control (TC) cells): 9.7% | cells dead compared to UT (AsPC-1 cells [1]; AsPC-1, 0.1 ug sDNA, 96 hrs): 14.3% | difference in cell viability between TC cells and sDNA transfected cells (AsPC-1 cells [1]; AsPC-1, 0.1 ug sDNA, both 48 and 96 hours): no significant differences | cell death (AsPC-1 cells [1]; AsPC-1, 0.25 μg sDNA per well): 16% | Fold change in numbers of viable cells between TC and sDNA transfected cells (in parentheses) (AsPC-1 cells [1]; AsPC-1, 0.25 μg sDNA): (−1.10) fold | Fold change in numbers of viable cells between UT and transfected cells (AsPC-1 cells [1]; AsPC-1, 0.25 μg sDNA): −1.19 fold | cell death compared to TC (AsPC-1 cells [1]; AsPC-1, 0.25 μg sDNA, 96 hours, versus TC cells): 9.0% | cell death (AsPC-1 cells [1]; AsPC-1, 1.0 μg sDNA per well): 60% | cells dead compared to TC (AsPC-1 cells [1]; AsPC-1, 1.0 μg sDNA, 96 hours, versus TC cells): 56.4% | Fold change in numbers of viable cells normalized relative to TC (Miapaca-2 cells [2]; Miapaca-2, 0.1 ug sDNA, Gemcitabine 1 nM, 96 hours): 1.12 fold | Fold change in numbers of viable cells normalized relative to TC (Miapaca-2 cells [2]; Miapaca-2, 0.25 ug sDNA, Gemcitabine 0 nM, 96 hours): −1.30 fold | Fold change in numbers of viable cells normalized relative to TC (Miapaca-2 cells [2]; Miapaca-2, 0.25 ug sDNA, Gemcitabine 1 nM, 96 hours): −1.38 fold | Fold change in numbers of viable cells normalized relative to TC (Miapaca-2 cells [2]; Miapaca-2, 0.25 ug sDNA, Gemcitabine 10 nM, 96 hours): −1.37 fold | Fold change in numbers of viable cells normalized relative to TC (Miapaca-2 cells [2]; Miapaca-2, 0.25 ug sDNA, Gemcitabine 30 nM, 96 hours): −2.97 fold | Fold change in numbers of viable cells normalized relative to TC (Miapaca-2 cells [2]; Miapaca-2, 0.25 ug sDNA, Gemcitabine 100 nM, 96 hours): −5.48 fold | Fold change in numbers of viable cells normalized relative to TC (Miapaca-2 cells [2]; Miapaca-2, 0.25 ug sDNA, Gemcitabine 1000 nM, 96 hours): −4.11 fold | Fold change in numbers of viable cells normalized relative to TC (AsPC-1 cells [3]; Gemcitabine 0 nM): −1.10 fold | Fold change in numbers of viable cells normalized relative to TC (AsPC-1 cells [3]; Gemcitabine 1 nM): −1.10 fold | Fold change in numbers of viable cells normalized relative to TC (AsPC-1 cells [3]; Gemcitabine 10 nM): −1.21 fold | Fold change in numbers of viable cells normalized relative to TC (AsPC-1 cells [3]; Gemcitabine 30 nM): −1.69 fold | Fold change in numbers of viable cells normalized relative to TC (AsPC-1 cells [3]; Gemcitabine 100 nM): −1.36 fold | Fold change in numbers of viable cells normalized relative to TC (AsPC-1 cells [3]; Gemcitabine 1000 nM): −2.16 fold | Fold change in numbers of viable cells normalized relative to TC (AsPC-1 cells [4]; Gemcitabine 0 nM, 96 hours): −1.11 fold | Fold change in numbers of viable cells normalized relative to TC (AsPC-1 cells [4]; Gemcitabine 1 nM, 96 hours): −1.09 fold | Fold change in numbers of viable cells normalized relative to TC (AsPC-1 cells [4]; Gemcitabine 10 nM, 96 hours): −1.18 fold | Fold change in numbers of viable cells normalized relative to TC (AsPC-1 cells [4]; Gemcitabine 30 nM, 96 hours): −1.34 fold | Fold change in numbers of viable cells normalized relative to TC (AsPC-1 cells [4]; Gemcitabine 100 nM, 96 hours): −1.52 fold | Fold change in numbers of viable cells normalized relative to TC (AsPC-1 cells [4]; Gemcitabine 1000 nM, 96 hours): −1.67 fold | cells dead compared to UT (Miapaca-2 cells [5]; Miapaca-2, 0.1 ug sDNA, 48 hrs): 36.3% | Fold change in numbers of viable cells between TC and sDNA transfected cells (in parentheses) (Miapaca-2 cells [5]; Miapaca-2, 0.1 μg sDNA): (1.09) fold | Fold change in numbers of viable cells between UT and transfected cells (Miapaca-2 cells [5]; Miapaca-2, 0.1 μg sDNA): −1.43 fold | cells dead compared to UT (Miapaca-2 cells [5]; Miapaca-2, 0.1 ug sDNA, 96 hrs): 32.0% | difference in cell viability between TC cells and sDNA transfected cells (Miapaca-2 cells [5]; Miapaca-2, 0.1 ug sDNA, both 48 and 96 hours): no significant differences | Fold change in numbers of viable cells between TC and sDNA transfected cells (in parentheses) (Miapaca-2 cells [5]; Miapaca-2, 0.25 μg sDNA): (−1.30) fold | Fold change in numbers of viable cells between UT and transfected cells (Miapaca-2 cells [5]; Miapaca-2, 0.25 μg sDNA): −2.15 fold | change in HMGA1 expression levels after sDNA transfection ([6]; AsPC-1, 0.5 μg sDNA in six well plates): no changes | cells dead / change in cell viability (Miapaca-2 cells [7]; Miapaca-2, 0.1 μg sDNA, 1 nM gemcitabine): no significant change | cells surviving (Miapaca-2 cells [7]; Miapaca-2, 0.1 μg sDNA, 10 nM gemcitabine, normalized to 0 nM gemcitabine): 83.9% | Fold change in numbers of viable cells normalized relative to TC (Miapaca-2 cells [7]; Gemcitabine 0 nM): 1.09 fold | Fold change in numbers of viable cells normalized relative to TC (Miapaca-2 cells [7]; Gemcitabine 10 nM): −1.09 fold | Fold change in numbers of viable cells normalized relative to TC (Miapaca-2 cells [7]; Gemcitabine 30 nM): −3.29 fold | Fold change in numbers of viable cells normalized relative to TC (Miapaca-2 cells [7]; Gemcitabine 100 nM): −4.06 fold | Fold change in numbers of viable cells normalized relative to TC (Miapaca-2 cells [7]; Gemcitabine 1000 nM): −4.24 fold

Nc1ccn([C@@H]2O[C@H](CO)[C@@H](O)C2(F)F)c(=O)n1 [Gemcitabine, gemcitabine]
IC50 (Miapaca-2 cells [2]; read-out: Gemcitabine IC50 in transfection control (TC) cells, Miapaca-2, TC (no sDNA), 0.1 μg column, 96 hours): 0.0119 ± 0.0012 µM | IC50 (Miapaca-2 cells [2]; read-out: Gemcitabine IC50 in transfection control (TC) cells, Miapaca-2, TC (no sDNA), 0.25 μg column, 96 hours): 0.0215 ± 0.0006 µM | change in cell viability, TC cells (Miapaca-2 cells [2]; Miapaca-2, TC (no sDNA), 1 nM gemcitabine, 96 hours): no significant change | cells surviving, TC cells (Miapaca-2 cells [2]; Miapaca-2, TC (no sDNA), 10 nM gemcitabine, 96 hours): 77.1% | Fold change in numbers of viable cells, TC cells with gemcitabine (Miapaca-2 cells [2]; Miapaca-2, TC (no sDNA), Gemcitabine 1 nM, 96 hours): 1.00 fold | Fold change in numbers of viable cells, TC cells with gemcitabine (Miapaca-2 cells [2]; Miapaca-2, TC (no sDNA), Gemcitabine 10 nM, 96 hours): −1.30 fold | Fold change in numbers of viable cells, TC cells with gemcitabine (Miapaca-2 cells [2]; Miapaca-2, TC (no sDNA), Gemcitabine 100 nM, 96 hours): −3.59 fold | Fold change in numbers of viable cells, TC cells with gemcitabine (Miapaca-2 cells [2]; Miapaca-2, TC (no sDNA), Gemcitabine 1000 nM, 96 hours): −3.47 fold | Fold change in numbers of viable cells, TC cells with gemcitabine (AsPC-1 cells [3]; Gemcitabine 10 nM): −1.02 fold | Fold change in numbers of viable cells, TC cells with gemcitabine (AsPC-1 cells [3]; Gemcitabine 100 nM): −1.36 fold | Fold change in numbers of viable cells, TC cells with gemcitabine (AsPC-1 cells [3]; Gemcitabine 1000 nM): −1.52 fold | IC50 (AsPC-1 cells [3]; Homo sapiens, ASPC1, 96 h, read-out: Gemcitabine IC50 in transfection control (TC) cells, AsPC-1, TC (no sDNA), 0.25 μg column, 96 hours): 0.0248 µM | Fold change in numbers of viable cells, TC cells with gemcitabine (AsPC-1 cells [4]; AsPC-1, TC (no sDNA), Gemcitabine 30 nM, 96 hours): −1.04 fold | IC50 (AsPC-1 cells [4]; Homo sapiens, ASPC1, 96 h, read-out: Gemcitabine IC50 in transfection control (TC) cells, AsPC-1, TC (no sDNA), 0.1 μg column, 96 hours): 0.028 µM | change in HMGA1 expression levels after gemcitabine ([6]; AsPC-1, 100 nM gemcitabine): no change | Fold change in numbers of viable cells, TC cells with gemcitabine (Miapaca-2 cells [7]; Miapaca-2, TC (no sDNA), Gemcitabine 30 nM): −3.21 fold
